From publication PMC7563863, “Quantification of Boron Compound Concentration for BNCT Using Positron Emission Tomography” (Cells, 2020)
Each block holds one molecule with its values, some of them ahead of it.

Experiments:
thyroid gland = assay: [^18F]FDG PET/CT of the thyroid gland; type: in vivo, rat
Experimental: PET imaging was carried out in a Mosaic microPET scanner (Philips, Andover, MA, USA) followed by a CT scan in NanoCT (Bioscan/Mediso, Budapest, Hungary). Briefly, animals were anesthetized with isoflurane. A catheter was placed in the tail vein. A radiotracer (41 MBq) was injected with a maximum limit of 5 mL/kg in a bolus injection. In dynamic studies, this was done already in the PET scanner on a heated animal bed (Équipement Vétérinaire MINERVE, Esternay, France). For static studies, animals were awakened and let up for 45-min radiotracer uptake. Then, the animal was anesthetized again and placed in the heated bed of the PET scanner. The dynamic scans were of 90 min centered in the thyroids; the static ones were three beds of 10 cm longitudinal lengths starting from the head towards the tail. Each bed position was scanned for 15 min. CT scans were acquired in 45 kVp with 177 µA at 500 ms exposition and 240 projections per rotation.
PET images were reconstructed using an iterative method with decay, scatter, and random corrections without attenuation correction. […] CT images were reconstructed using the filtered back-projection method with an exact cone-beam and with a Shepp Logan 98% filter, giving a 0.2 mm uniform pixel size. […]

[1] = target: T1, sodium-iodine symporter (NIS) in thyroids (Rattus norvegicus, UniProt Q63008); assay: Two-tissue compartment kinetic modeling of the tracer in the thyroid VOI (PMOD PKIN); type: in vivo; conditions: two-tissue compartment model, hyperplastic thyroid
T1 construct: It was injected into the tail veins of rats; from tissue; host or cells: thyroid (hyperplastic, perchlorate-treated) of living Wistar rats
T1 sequence (Q63008 1-618): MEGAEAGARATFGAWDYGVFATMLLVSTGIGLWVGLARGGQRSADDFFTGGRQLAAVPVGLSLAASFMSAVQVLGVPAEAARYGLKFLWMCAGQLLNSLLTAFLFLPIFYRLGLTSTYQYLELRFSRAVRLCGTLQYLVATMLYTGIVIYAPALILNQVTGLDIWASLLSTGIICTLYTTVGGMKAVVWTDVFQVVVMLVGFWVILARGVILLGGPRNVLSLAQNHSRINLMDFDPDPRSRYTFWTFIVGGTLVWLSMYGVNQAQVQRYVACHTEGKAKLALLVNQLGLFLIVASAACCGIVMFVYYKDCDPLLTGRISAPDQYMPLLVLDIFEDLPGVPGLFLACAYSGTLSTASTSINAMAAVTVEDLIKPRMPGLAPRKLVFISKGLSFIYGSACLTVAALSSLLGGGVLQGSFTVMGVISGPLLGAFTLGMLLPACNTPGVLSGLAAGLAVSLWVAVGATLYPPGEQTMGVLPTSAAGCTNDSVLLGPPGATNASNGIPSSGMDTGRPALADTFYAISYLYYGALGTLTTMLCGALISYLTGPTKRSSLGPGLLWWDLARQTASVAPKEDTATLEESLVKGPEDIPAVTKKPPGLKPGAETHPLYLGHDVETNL
Excerpt: The kinetic modeling of the tracer in VOIs was done using two tissue compartment models shown in Equation (1). Cp is the activity concentration of the tracer in the plasma, C1 and C2 are concentrations in two compartments, k are the kinetic constants, and t is time. The kinetic modeling was done in the PMOD module PKIN using full blood as the input function, with linear interpolation between experimental points taken from the dynamic image of the left ventricle of the heart.
(1) dC2(t)/dt=k3C1(t)−k4C2(t)dC1(t)/dt=K1Cp(t)−(k2 + k3)C1(t) + k4C2(t)

[2] = Calculation of boron concentration in thyroid from PET activity concentration and production data; type: in vivo, rat
Excerpt: As injection solution of the [^18F]NaBF4 tracer contains the majority of unlabeled NaBF4; from the NaBF4 molar concentration in the synthesis solution, we could know the labeled to unlabeled tracer compound concentration ratio at the beginning of the PET study. […] The boron concentration is known only with the spatial resolution of the PET image, which in the Mosaic scanner case is about 2.3 mm. The microscopic details of the boron concentration were inferred from NIS immunofluorescence, assuming that the BF4^− concentration is only significant in NIS-containing cells.
Briefly, at the radiotracer production stage, the mass of NaBF4, Milli-Q water, and activity and volume of the [^18F]F^- Milli-Q water solution arriving from the cyclotron are known. Correcting for ^18F decay during the production and time needed for injection, with the known volume and activity of the produced and injected [^18F]NaBF4 tracer, we can calculate the amount of NaBF4 left from the production stage in the tissue from the activity concentration expressed initially as maximum local value of standard uptake value (SUVmax), then recalculated to kBq/mL and, then, to the molar concentration of ^18F at the beginning of the PET study.
To calculate the boron concentration, we start from calculating the ^18F molar concentration in the product to be injected. At the end of synthesis (EOS, decay-corrected to PET study start), we received 4.3 GBq of [^18F]NaBF4 in 2 mL of saline. As the activity concentration A is A=N/τ , where N is the number of ^18F atoms and τ=t1/2/ln(2) , t1/2 of ^18F being 109.7 min expressed in seconds, and diluted in 25.9 mL of Milli-Q water, we obtained 33.9 nM of [^18F]NaBF4 at the EOS and 351 µM of unlabeled NaBF4. We can calculate the molar concentration in the hyperplasia maximum from the maximum of the curve in Figure 3: 2.3 MBq/mL. […] Dividing the calculated concentration of [^18F]NaBF4 36.8 pM by 9.7 × 10^−5, we receive, therefore, a 381 nM boron concentration, which is […] of the fraction of required 2 mM ^10B concentration for BNCT treatment.

[3] = target: T1, sodium-iodine symporter (NIS) in thyroids; parameters: method as in PMID 20577737; conditions: cited from earlier work
[4] = target: T1, sodium-iodine symporter (NIS) in thyroids; assay: Dynamic [^18F]NaBF4 PET/CT of the hyperplastic thyroid, time-activity curve; type: in vivo
Experimental: Female Wistar rats, aged 16–17 weeks old and weighing 200–220 g at the study starting moment, were kept in pathogen-free cages at the animal facilities of the School of Medicine (University of Seville, Seville, Spain) under controlled laboratory conditions (temperature 20 ± 2 °C, humidity 40–50%, lighting regimen of 12 light/12 dark hours). Animals were fed a normal laboratory diet (Teklad diet, Envigo, Cambridgeshire, UK) and fresh tap water ad libitum. The study was approved by the Ethical Committee of the Faculty of Medicine, University of Seville. Animal handling was conducted following the Guide for the Care and Use of Laboratory Animals. Rats were divided into two equal groups: the control group and the treated group. Animals from the treated group received 1% potassium perchlorate (w/v) in the drinking water, ad libitum, for […]. All experiments were carried with the approval of the ethics committee of the University of Seville.
PET imaging was carried out in a Mosaic microPET scanner (Philips, Andover, MA, USA) followed by a CT scan in NanoCT (Bioscan/Mediso, Budapest, Hungary). Briefly, animals were anesthetized with isoflurane. A catheter was placed in the tail vein. A radiotracer (41 MBq) was injected with a maximum limit of 5 mL/kg in a bolus injection. […]

NIS = test system: NIS; parameters: method as in PMID 21085047; conditions: cited from earlier work
[5] = Estimated concentration in the blood after injection; type: in vivo; conditions: rat
Experimental: The initial concentration of NaBF4 in the blood after injection of 110 mg/kg in the rat is about 16 mM, but as it can be seen from Figure 3, it is expected to drop fast to about 25% at 90 min—that is, to 4 mM. BPA is injected at doses of 500 mg/kg, which in rats, results in an initial concentration in the blood of 37 mM. The transporter of BPA is L-type amino acid transporter (LAT1), which for the most similar compound, phenylalanine has an IC50 of about 60 µM [20]. This is a […] of magnitude higher concentration in the blood for phenylalanine, and BPA still allows reaching therapeutic boron concentrations in the tumor.

[6] = test system: L-type amino acid transporter (LAT1); parameters: method as in PMID 30048132; conditions: cited from earlier work

SMILES: OC[C@H]1OC(O)[C@H]([18F])[C@@H](O)[C@@H]1O (stereo partly drawn) [[^18F]FDG, [^18F]fluorodeoxyglucose]
- uptake in control and hyperplastic thyroid (thyroid gland; control thyroid and thyroid with hyperplasia): neither the control nor thyroid with hyperplasia show an abnormal uptake
- SUVmax in thyroid tumor (thyroid gland; thyroid tumor): two

- Flux [1]: 0.28
- K1 [1]: 1.89
- Kl/k2 [1]: 3.60
- Vs (distribution volume of the specific binding) [1]: 3.96
- Vt (distribution volume) [1]: 7.56
- k2 [1]: 0.52
- k3 [1]: 0.09
- k3/k4 (nondisplaceable binding potential, BPND) [1]: 1.1
- k4 [1]: 0.08
- molar concentration of [^18F]NaBF4 in thyroid at peak ([2]; hyperplasia maximum, from 2.3 MBq/mL): 36.8 pM
- capture in bones ([4]; PET): no capture in bones
- peak activity concentration in thyroid ([4]; hyperplastic thyroid, about 17 min after injection): 2.3 MBq/mL
SMILES: F[B-](F)(F)F.[Na+] [[^18F]NaBF4]
- stability in vivo [3]: stable in vivo

- fraction of the required 2 mM ^10B concentration reached ([2]; 381 nM boron in hyperplastic thyroid): 19 × 10^−5
- boron concentration in thyroid with hyperplasia ([2]; at peak, after 53 nmol (21 µg/kg) NaBF4 injected): 381 nM
- concentration in the blood at 90 min ([5]; 110 mg/kg, expected): 4000 µM
- concentration in the blood at 90 min as fraction of initial ([5]; expected from Figure 3 blood curve): about 25%
SMILES: F[B-](F)(F)F.[Na+] [NaBF4]
- IC50 (NIS): 1.6 µM

SMILES: N[C@@H](Cc1ccccc1)C(=O)O [phenylalanine]
- IC50 [6]: ~60 µM
